{
  "source": "patent US20080276732A1",
  "about": "“INDICATOR FOR ORALLY ADMINISTERED COMPOSITIONS” (MULTI FORMULATIONS LTD., priority 2007, published 2008)",
  "key": {"subjects [1]": {"test_system": "subjects", "conditions": "single 30 mg oral dose of Niacin", "description": "In order to test the ability of orally administered Niacin to induce a sensory effect a test was conducted. Five subjects were given a capsule containing Niacin and asked to report on any perceived sensory effects. Each capsule contained 30 mg of Niacin and filled to 150 mg with lactose as a filler-binder. Subjects were informed of the capsule contents and of possible effects. Subjects were asked to report any sensory effects felt, the time to onset and the duration of any effects."}, "individuals": {"test_system": "individuals", "conditions": "Niacin at pharmacologically active doses; Benyo et al. 2005; cited from earlier work"}, "subjects [2]": {"test_system": "subjects", "experiment": "Testing the efficacy of Picamilon in capsule form: perceived sensory effects after oral administration", "format": "in vivo, human", "conditions": "single 100 mg oral dose of Picamilon", "description": "(§1) In order to test the ability of orally administered Picamilon to induce a sensory effect a test was conducted. Six subjects were given a capsule containing Picamilon and asked to report on any perceived sensory effects. Each capsule contained 100 mg of Picamilon and filled to 150 mg with lactose as a filler-binder."}, "subjects [3]": {"test_system": "subjects", "experiment": "Testing the efficacy of Yohimbine in capsule form: perceived sensory effects after oral administration", "format": "in vivo, human", "description": "as §1, with “Yohimbine” for “Picamilon”, “Four” for “Six”, “5” for “100”"}, "[4]": {"conditions": "per subject, subject 1 separately for warmth and tingling"}, "[5]": {"conditions": "single 5 mg oral dose of Yohimbine, per subject"}},
  "note": "“And” between values parts separate entries of the source, which are not always exact repeats. Equal values may be shown once. “Also recorded” adds a separate entry of the source. Read-outs that look alike come from different tables or passages of the source.",
  "data": [
    {"smiles": "O=C(O)c1cccnc1", "note": "[Niacin, nicotinic acid]", "values": [
      {"measurement": "Duration", "setting": "subjects [1]; capsule, one line per subject", "value": "45 min (2×) and 15 min"},
      {"measurement": "Time to Onset", "setting": "subjects [1]; capsule, one line per subject", "value": "10 to 15 min and 20 min and 15 min"},
      {"measurement": "subjects who experienced transient sensory effects", "setting": "subjects [1]; five subjects", "value": "three of the five"},
      {"measurement": "time until the individual perceives a sensory effect (summary)", "setting": "subjects [1]; summary of Table 1", "value": "≤ 15", "unit": "min"},
      {"measurement": "duration of the flushing effect", "setting": "individuals", "value": "about 1 hr"}
    ]},
    {"smiles": "O=C(O)CCCNC(=O)c1cccnc1", "note": "[Picamilon, N-nicotinoyl-gamma-aminobutyric acid]", "values": [
      {"measurement": "Sensory Effect(s)", "setting": "subjects [2]; capsule, one line per subject (1-6)", "value": "tingling; also recorded: relaxation; also recorded: warmth - body"},
      {"measurement": "Duration", "setting": "subjects [2]; per subject", "value": 1.5, "unit": "h"},
      {"measurement": "Duration", "setting": "subjects [2]; [4]", "value": "15-20 min and 45 min and 5 min (warmth) and 15 min"},
      {"measurement": "Time to Onset", "setting": "subjects [2]; [4]", "value": "15 min and 15-20 min (2×) and 10 min (warmth) and 30 min"},
      {"measurement": "subjects who reported noticeable effects", "setting": "subjects [2]; six subjects", "value": "four of the six"}
    ]},
    {"smiles": "COC(=O)[C@@H]1[C@H]2C[C@H]3c4[nH]c5ccccc5c4CCN3C[C@@H]2CC[C@@H]1O", "note": "[Yohimbine]", "values": [
      {"measurement": "onset time and duration of perceived sensory effects on average compared with Niacin and Picamilon", "setting": "subjects [3]; 5 mg Yohimbine, oral", "value": "longer onset time and longer duration"},
      {"measurement": "subjects who reported noticeable effects", "setting": "subjects [3]; single 5 mg oral dose of Yohimbine, four subjects", "value": "three of the four"},
      {"measurement": "Duration", "setting": "subjects [3]; [5]", "value": "10 to 15 min and 60 min and 120 min"},
      {"measurement": "Time to Onset", "setting": "subjects [3]; [5]", "value": "1 h and 0.5 h and 0.25 h"}
    ]}
  ]
}
